Measured values reported in patent publication US20230284621A1, “HERBICIDAL COMPOSITIONS” (PBI-Gordon Corporation, priority 2022, published 2023).

What was measured:
[1] = Chemical stability, accelerated 40° C. storage; assay type: physicochemical; settings: for 30 Days @ 40° C. (% Change from Initial): 30 days at 40° C.; for 42 Days @ 40° C. (% Change from Initial): 42 days at 40° C.
Method: (§1) Formulations were prepared as described in Example I. Physically stable formulations (no settling or physical issues observed) were tested for chemical stability over various time spans and temperature conditions.
Formulations were prepared as described in Example III. Physically stable formulations (no settling or physical issues observed) were tested for chemical stability over various time spans and temperature conditions.

[2] = Chemical stability, ambient storage; assay type: physicochemical; settings: for 17 Months (% Change from Initial): active ingredient in Professional Formulation 1, 17 Months (title: 14 Months); for 16 Months (% Change from Initial): active ingredient in Professional Formulation 2
Method: as §1

[3] = active ingredient in Consumer Formulation 3
[4] = active ingredient in Professional Formulation 1
[5] = active ingredient in Professional Formulation 2
[6] = active ingredient in Ready to Use Formulation 3
[7] = active ingredient in Ready-to-Use Formulation 2

Row | Structure (SMILES) | 30 Days @ 40° C. (% Change from Initial) [1, 3] [%] | 42 Days @ 40° C. (% Change from Initial) [1, 4] | 42 Days @ 40° C. (% Change from Initial) [1, 5] | 30 Days @ 40° C. (% Change from Initial) [1, 6] | 30 Days @ 40° C. (% Change from Initial) [1, 7] | 17 Months (% Change from Initial) [2] | 16 Months (% Change from Initial) [2]
1 | O=C(O)COc1ccc(Cl)cc1Cl [2,4-D acid] | −0.21 | +0.66% | +1.38% | −.21% | +0.83% | +2.71% | −2.02%
2 | COc1c(Cl)ccc(Cl)c1C(=O)O [Dicamba acid, 3,6-dichloro-2-methoxybenzoic acid] | 0.00 | −4.11% | 0.00% | −1.79% | +1.10% | +2.04% | −0.80%
3 | Cc1nn(-c2cc(NS(C)(=O)=O)c(Cl)cc2Cl)c(=O)n1C(F)F [Sulfentrazone, N-[2,4-dichloro-5-[4-(difluoromethyl)-3-methyl-5-oxo-1,2,4-triazol-1-yl]phenyl]methanesulfonamide] | 0.00 | +1.30% | +0.29% | −0.33% | −0.67% | +3.60% | +5.71%
4 | Cc1c(C(=O)c2c[nH]n(C)c2=O)ccc(S(C)(=O)=O)c1C1=NOCC1 [Topramazone, 4-[3-(4,5-dihydro-1,2-oxazol-3-yl)-2-methyl-4-methylsulfonylbenzoyl]-2-methyl-1H-pyrazol-3-one] | −1.53 | −3.89% | +1.14% | −0.46% | 0.00% | −4.79% | −4.40%
